The source of these data is patent US20160031839A1, “ARGININE […] INHIBITORS AND USES THEREOF” (EPIZYME, INC., priority 2013, published 2016).

One may read the pIC50 as −log10 of the IC50, conventionally taken in molar units.

pIC50: −log10 of the molar value. Like-named read-outs stand apart in the source and are kept apart here.

The target of one assay is T1, PRMT1 (Homo sapiens, UniProt Q99873).
T1 construct: made in house; host or cells: High Five insect cells (baculovirus)
The assay can be described thus: PRMT1 Biochemical Assay. An excerpt:
Peptide representative of human histone H4 residues 36-50 was synthesized with an N-terminal linker-affinity tag motif and a C-terminal amide cap by 21st Century Biochemicals. The peptide was purified by high-performance liquid chromatography (HPLC) to greater than 95% purity and confirmed by liquid chromatography mass spectrometry (LC-MS). The sequence was Biot-Ahx-[…]-amide (SEQ ID NO.:1).
Full-length human PRMT1 isoform 1 (NM_001536.5) transcript clone was amplified from an HEK 293 cDNA library, incorporating flanking 5′ sequence encoding a FLAG tag ([…]) (SEQ ID NO.:2) fused directly to Met 1 of PRMT1. The amplified gene was subcloned into pFastBacI (Life Technologies) modified to encode an N-terminal GST tag and a TEV cleavage sequence
GST-tagged PRMT1 was eluted with 50 mM Tris, 2 mM glutathione, pH 7.8, dialysed in buffer A and concentrated to 1 mg/mL. The purity of recovered protein was 73%. Reference: Wasilko, D. J. and S. E. Lee: “TIPS: titerless infected-cells preservation and scale-up” Bioprocess J., 5 (2006), pp. 29-32.
General Procedure for PRMT1 Enzyme Assays on Peptide Substrates.
The assays were all performed in a buffer consisting of 20 mM Bicine (pH=7.6), 1 mM TCEP, 0.005% BSG, and 0.002% Tween 20, prepared on the day of use. Compounds in 100% DMSO (1 ul) were spotted into a polypropylene 384-well V-bottom plates (Greiner) using a Platemate Plus outfitted with a 384-channel head (Thermo Scientific). DMSO (1 ul) was added to Columns 11, 12, 23, 24, rows A-H for the maximum signal control and 1 ul of SAH, a known product and inhibitor of PRMT1, was added to columns 11, 12, 23, 24, rows I-P for the minimum signal control. A cocktail (40 ul) containing the PRMT1 enzyme was added by Multidrop Combi (Thermo-Fisher). The compounds were allowed to incubate with PRMT1 for 30 min at room temperature, then a cocktail (10 ul) containing SAM and peptide was added to initiate the reaction (final volume=51 ul). The final concentrations of the components were as follows: PRMT1 was 0.5 nM, ^3H-SAM was 200 nM, non-radiolabeled SAM was 1.5 uM, peptide was 20 nM, SAH in the minimum signal control wells was 1 mM, and the DMSO concentration was 2%. The assays were stopped by the addition of non-radiolabeled SAM (10 ul) to a final concentration of 300 uM, which dilutes the ^3H-SAM to a level where its incorporation into the peptide substrate is no longer detectable. 50 ul of the reaction in the 384-well polypropylene plate was then transferred to a 384-well Flashplate and the biotinylated peptides were allowed to bind to the streptavidin surface for at least 1 hour before being washed once with 0.1% Tween20 in a Biotek ELx405 plate washer. The plates were then read in a PerkinElmer TopCount plate reader to measure the quantity of ^3H-labeled peptide bound to the Flashplate surface, measured as disintegrations per minute (dpm) or alternatively, referred to as counts per minute (cpm).
(§1) Where dpm=disintegrations per minute, cmpd=signal in assay well, and min and max are the respective minimum and maximum signal controls.
(§2) Where top and bottom are the normally allowed to float, but may be fixed at 100 or 0 respectively in a 3-parameter fit. The Hill Coefficient normally allowed to float but may also be fixed at 1 in a 3-parameter fit. Y is the % inhibition and X is the compound concentration.

The target of the next assay is T2, PRMT3 (Homo sapiens, UniProt O60678).
T2 construct: made in house; host or cells: E. coli BL21(DE3) Gold
The assay can be described thus: PRMT3 Biochemical Assay.
Excerpt: Peptide containing the classic RMT substrate motif was synthesized with an N-terminal linker-affinity tag motif and a C-terminal amide cap by 21st Century Biochemicals. The peptide was purified by high-performance liquid chromatography (HPLC) to greater than 95% purity and confirmed by liquid chromatography mass spectrometry (LC-MS). The sequence was Biot-Ahx-[…]-amide (SEQ ID NO.:11).
Full-length human PRMT3 (NM_005788.3) isoform 1 transcript clone was amplified from an HEK 293 cDNA library and subcloned into pGEX-KG (GE Life Sciences). The resulting construct encodes an N-terminal GST tag and a thrombin cleavage sequence
GST-tagged PRMT3 was eluted with 50 mM Tris, 2 mM glutathione, pH 7.1 and 50 mM Tris, 20 mM glutathione, pH 7.1. Pooled fractions were dialysed in 20 mM Tris, 50 mM NaCl, 5% glycerol, 1 mM EDTA, 1 mM DTT, pH7.5 (Buffer B) and applied to a Q Sepharose Fast Flow column. GST-tagged PRMT3 was eluted by 500 mM NaCl in buffer B. Pooled fractions were dialyzed in 25 mM phosphate buffer, 100 mM NaCl, 5% glycerol, 2 mM DTT, pH 6.8 (Buffer C) and loaded on to a ceramic hydroxyapatite column. GST-tagged PRMT3 eluted with 25-400 mM phosphate in buffer C. Protein was concentrated and buffer was exchanged to 20 mM Tris, 150 mM NaCl, 5% glycerol, 5 mM β-mercaptoethanol, pH7.8 by ultrafiltration. The purity of recovered protein was 70%.
General Procedure for PRMT3 Enzyme Assays on Peptide Substrates.
The assays were all performed in a buffer consisting of 20 mM Bicine (pH=7.6), 1 mM TCEP, 0.005% BSG, and 0.002% Tween 20, prepared on the day of use. Compounds in 100% DMSO (1 ul) were spotted into a polypropylene 384-well V-bottom plates (Greiner) using a Platemate Plus outfitted with a 384-channel head (Thermo Scientific). DMSO (1 ul) was added to Columns 11, 12, 23, 24, rows A-H for the maximum signal control and 1 ul of SAH, a known product and inhibitor of PRMT3, was added to columns 11, 12, 23, 24, rows I-P for the minimum signal control. A cocktail (40 ul) containing the PRMT3 enzyme was added by Multidrop Combi (Thermo-Fisher). The compounds were allowed to incubate with PRMT3 for 30 min at room temperature, then a cocktail (10 ul) containing SAM and peptide was added to initiate the reaction (final volume=51 ul). The final concentrations of the components were as follows: PRMT3 was 0.5 nM, ^3H-SAM was 100 nM, non-radiolabeled SAM was 1.8 uM, peptide was 330 nM, SAH in the minimum signal control wells was 1 mM, and the DMSO concentration was 2%. The assays were stopped by the addition of potassium chloride (10 ul) to a final concentration of 100 mM. 50 ul of the reaction in the 384-well polypropylene plate was then transferred to a 384-well Flashplate and the biotinylated peptides were allowed to bind to the streptavidin surface for at least 1 hour before being washed once with 0.1% Tween20 in a Biotek ELx405 plate washer. The plates were then read in a PerkinElmer TopCount plate reader to measure the quantity of ^3H-labeled peptide bound to the Flashplate surface, measured as disintegrations per minute (dpm) or alternatively, referred to as counts per minute (cpm).
as §1, §2

Where [1] appears, read: Table 2, biochemical evaluation, read-out: PRMT1 IC50 (class).
Setting [2] is: Table 2a, numerical, single experiment or average of multiple experiments, read-out: PRMT1 IC50.
The mark [3] stands for this setting: Table 2, biochemical evaluation, read-out: PRMT3 IC50 (class).
The mark [4] stands for this setting: Table 2a, numerical, single experiment or average of multiple experiments, read-out: PRMT3 IC50.

T1 sequence (Q99873 with tags, fused parts or gaps): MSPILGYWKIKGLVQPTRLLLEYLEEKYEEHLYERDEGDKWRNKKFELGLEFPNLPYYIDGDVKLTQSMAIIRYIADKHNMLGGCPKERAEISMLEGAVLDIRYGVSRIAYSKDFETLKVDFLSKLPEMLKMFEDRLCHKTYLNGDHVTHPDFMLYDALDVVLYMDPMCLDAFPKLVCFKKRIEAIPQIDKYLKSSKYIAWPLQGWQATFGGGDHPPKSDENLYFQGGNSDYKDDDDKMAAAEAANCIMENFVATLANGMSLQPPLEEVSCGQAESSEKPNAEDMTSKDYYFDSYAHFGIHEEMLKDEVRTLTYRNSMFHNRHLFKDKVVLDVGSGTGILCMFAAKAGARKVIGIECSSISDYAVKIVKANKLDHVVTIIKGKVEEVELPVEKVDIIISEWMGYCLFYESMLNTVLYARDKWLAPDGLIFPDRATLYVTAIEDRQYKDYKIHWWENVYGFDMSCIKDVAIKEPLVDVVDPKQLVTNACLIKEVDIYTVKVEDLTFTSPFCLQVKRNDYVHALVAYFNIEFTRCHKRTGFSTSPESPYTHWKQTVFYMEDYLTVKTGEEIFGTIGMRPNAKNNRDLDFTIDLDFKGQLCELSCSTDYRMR
T2 sequence (O60678 with tags, fused parts or gaps): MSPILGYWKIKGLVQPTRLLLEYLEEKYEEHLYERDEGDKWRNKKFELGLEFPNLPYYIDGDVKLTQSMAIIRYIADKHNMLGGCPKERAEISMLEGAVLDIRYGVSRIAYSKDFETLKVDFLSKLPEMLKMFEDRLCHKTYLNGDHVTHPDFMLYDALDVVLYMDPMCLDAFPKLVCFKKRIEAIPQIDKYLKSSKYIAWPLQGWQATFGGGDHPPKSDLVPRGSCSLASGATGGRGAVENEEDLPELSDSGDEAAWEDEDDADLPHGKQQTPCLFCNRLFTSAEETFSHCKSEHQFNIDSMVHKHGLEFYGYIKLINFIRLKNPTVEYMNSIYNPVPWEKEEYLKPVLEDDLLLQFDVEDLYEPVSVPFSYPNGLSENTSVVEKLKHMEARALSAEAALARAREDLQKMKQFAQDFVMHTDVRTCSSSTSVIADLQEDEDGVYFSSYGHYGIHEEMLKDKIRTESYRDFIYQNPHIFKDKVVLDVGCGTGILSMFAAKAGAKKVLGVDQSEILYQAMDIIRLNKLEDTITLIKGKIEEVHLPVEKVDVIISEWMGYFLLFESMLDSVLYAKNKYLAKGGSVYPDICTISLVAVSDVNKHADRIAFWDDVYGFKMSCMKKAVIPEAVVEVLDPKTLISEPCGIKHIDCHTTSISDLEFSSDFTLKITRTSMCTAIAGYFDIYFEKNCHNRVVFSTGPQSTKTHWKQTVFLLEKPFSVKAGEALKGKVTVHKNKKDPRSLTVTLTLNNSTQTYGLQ

As to `CN(CCN)Cc1[nH]cnc1-c1ccc(C#N)cc1` [Compound 10, 4-(5-(((2-aminoethyl)(methyl)amino)methyl)-1H-imidazol-4-yl)benzonitrile], the pIC50 is 6.00 to 7.00 on PRMT1 (setting [1]) and 6.67 on PRMT1 (setting [2]).

As to `CN(CCN)Cc1cncn1-c1ccc(C#N)cc1` [Compound 6, 4-(5-(((2-aminoethyl)(methyl)amino)methyl)-1H-imidazol-1-yl)benzonitrile], the pIC50 at PRMT1 (setting [1]) was 5.52 to 6.00; at PRMT1 (setting [2]), 5.77.

Take `CN(CCN)Cc1nsnc1-c1ccc(C#N)cc1` [Compound 7, 4-(4-(((2-aminoethyl)(methyl)amino)methyl)-1,2,5-thiadiazol-3-yl)benzonitrile]: the negative-log IC50 (pIC50) at PRMT1 (setting [1]) is 6.00 to 7.00; at PRMT1 (setting [2]), 6.56.

Regarding `CN(CCN)Cc1oncc1-c1ccc(F)cc1` [Compound 11, N^1-((4-(4-fluorophenyl)isoxazol-5-yl)methyl)-N^1-methylethane-1,2-diamine], the results for the pIC50 at PRMT1 (setting [1]) and at PRMT1 (setting [2]) were 5.52 to 6.00 and 5.57, respectively.

Consider `CN(CCN)Cc1ccnn1-c1ccc(Oc2ccccc2)cc1` [Compound 9], for which the results for the pIC50 on PRMT1 (setting [1]) and on PRMT1 (setting [2]) were over 7.00 and 7.81, respectively.

Turning to `CN(CCN)Cc1cnnn1-c1ccc(C#N)cc1` [Compound 5, 4-(5-(((2-aminoethyl)(methyl)amino)methyl)-1H-1,2,3-triazol-1-yl)benzonitrile], the pIC50 on PRMT1 (setting [1]) and on PRMT1 (setting [2]) was under 5.00 throughout.

Regarding `CN(CCN)Cc1n[nH]nc1-c1ccc(C#N)cc1` [Compound 3, 4-(5-(((2-aminoethyl)(methyl)amino)methyl)-2H-1,2,3-triazol-4-yl)benzonitrile], the negative logarithm of the IC50 (pIC50) on PRMT3 (setting [3]) is under 5.00; at PRMT3 (setting [4]), under 5.00; at PRMT1 (setting [1]), over 7.00; on PRMT1 (setting [2]) it was 7.09.

Turning to `CN(CCN)Cc1ocnc1-c1ccc(C#N)cc1` [Compound 4, 4-(5-(((2-aminoethyl)(methyl)amino)methyl)oxazol-4-yl)benzonitrile], the pIC50 was 6.00 to 7.00 at PRMT1 (setting [1]) and 6.57 at PRMT1 (setting [2]).

For the compound `CN(CCN)Cc1ccnn1-c1ccc(C#N)cc1` [Compound 2, 4-(5-(((2-aminoethyl)(methyl)amino)methyl)-1H-pyrazol-1-yl)benzonitrile], the negative-log IC50 (pIC50) at PRMT3 (setting [3]) was under 5.00; on PRMT3 (setting [4]), under 5.00; at PRMT1 (setting [1]), 6.00 to 7.00; at PRMT1 (setting [2]) it was 6.80.

Turning to `CC(C)Oc1ccc(-n2nccc2CN(C)CCN)cc1` [Compound 8, N^1-((1-(4-isopropoxyphenyl)-1H-pyrazol-5-yl)methyl)-N^1-methylethane-1,2-diamine], the values for the pIC50 at PRMT1 (setting [1]) and on PRMT1 (setting [2]) were over 7.00 and 7.86, respectively.

In the case of `CN(CCN)Cc1ncoc1-c1ccc(C#N)cc1` [Compound 1, 4-(4-(((2-aminoethyl)(methyl)amino)methyl)oxazol-5-yl)benzonitrile], the pIC50 at PRMT3 (setting [3]) is under 5.00; on PRMT3 (setting [4]), under 5.00; on PRMT1 (setting [1]), 6.00 to 7.00; on PRMT1 (setting [2]), 6.50.
